The values below come from paper PMC5309217, “Divergent Soybean Calmodulins Respond Similarly to Calcium Transients: Insight into Differential Target Regulation” (Frontiers in Plant Science, 2017).

Assay [1] can be described thus: Steady-state Ca^2+ sensitivity of CaMs in the presence of NADK peptide. In kind it is binding. To be noted: vs MLCK peptide. As for the experimental part: (§1) The steady-state fluorescence measurements were performed using a Perkin-Elmer LS55 spectrofluorimeter at 20°C. The titration buffer consisted of 200 mM MOPS, 150 mM KCl, 2 mM EGTA (pH 7.0) ([Tikunova et al., 2002], [2010]; [Tikunova and Davis, 2004]). […] The free Ca^2+ concentration was calculated using the EGCA02 program by [Robertson and Potter (1984)]. The free Mg^2+ concentration was calculated using the MaxChelator program ([Bers et al., 2010]). Each reported Kd represents an average of at least three successive titrations ± standard error and fit with the Hill equation as previously described ([George et al., 1996]).
(§2) The Ca^2+ titrations in the presence of Mg^2+ were performed as described above with the addition of 3 mM Mg^2+ to the titration buffer.

Assay [2] deals with T1, CaM binding domain of Arabidopsis thaliana NADK2 (Arabidopsis thaliana, UniProt Q9C5W3).
T1 construct: purchased Ohio Peptide LLC (Powell, OH); host or cells: chemical synthesis
Briefly: NADK peptide affinity for CaMs (intrinsic Trp of the peptide). The protocol: as §1, §2

In the case of IYVHSKEGVWRTSAMVSRWK [NADK peptide], the “effect at sensitizing the CaMs to Ca^2+ compared to MLCK” value in assay [1] was “substantially weaker effect”. Further, in assay [2] (absence of Ca^2+, data not shown), the “binding of NADK peptide to CaMs in the absence of Ca^2+” value is reported as “did not bind”. Besides, the “affinity of NADK peptide for Ca^2+-saturated CaMs compared to MLCK” value in assay [2] (vs MLCK peptide) is recorded as “weaker affinity”.
Take “sCaM4: soybean CaM isoform 4; stress-induced CaM found in the soybean”: the Kd in assay [2] (read-out: NADK peptide affinity (Kd) for Ca^2+-saturated CaM, WT CaM titrated into 1 μM NADK peptide, 100 μM Ca^2+ (pCa = 4), 200 mM MOPS, 150 mM KCl, 2 mM EGTA, pH 7.0, 20°C, mean ± SE of at least three titrations) is 0.76 ± 0.07 µM.
